According to patent US20050075334A1, “Novel compounds” (priority 2001, published 2005):

For `COC(=O)c1cccc2[nH]c(Sc3cccc4c(=O)cc[nH]c34)nc12` [Example 3, 2-(4-Oxo-1,4-dihydro-quinolin-8-ylsulfanyl)-1H-benzoimidazole-4-carboxylic Acid Methyl Ester], the melting point was > 250 °C.
With `N#Cc1c(Cl)ccc2[nH]c(Sc3cccc4c(=O)cc[nH]c34)nc12` [Example 8, 5-Chloro-2-[(4-oxo-1,4-dihydroquinolin-8-yl)thio]-1H-benzimidazole-4-carbonitrile] the melting point was 376 °C (dec.).
With `C[S+]([O-])c1c[nH]c2c(Sc3nc4cc(Cl)ccc4[nH]3)ccc([N+](=O)[O-])c12` (stereo not drawn) [Example 16, 5-Chloro-2-([3-(methylsulfinyl)-4-nitro-1H-indol-7-yl]thio}-1H-benzimidazole] the melting point was 243 to 246 °C.
